The source of these data is ChEMBL document CHEMBL1152102, “6-Phenyl-6-alkylamido-5,6-dihydro-2H-pyran-2-ones: novel HIV protease inhibitors” (Bioorg Med Chem Lett, 1996).

In the experiment the target is Human immunodeficiency virus type 1 protease (Human immunodeficiency virus 1, UniProt Q72874). Kind of experiment: In vitro inhibitory activity against purified HIV-1 protease at a pH of 4.7 and a final enzyme concentration of 0.45-1.1 nM.
With `CC(C)c1ccccc1SC1=C(O)OC(CCCC(=O)N(C)Cc2ccccc2)(c2ccccc2)CC1=O` (stereo not given), the IC50 was determined as 676 nM.

`CC(C)c1ccccc1SC1=C(O)OC(CCCC(=O)Nc2ccccc2)(c2ccccc2)CC1=O` (stereo not given) displayed a concentration for half-maximal inhibition (IC50) of 429 nM.

For `CC(C)c1ccccc1SC1=C(O)OC(CCCC(=O)NCc2ccccc2)(c2ccccc2)CC1=O` (stereo not given), it took 81 nM to reach half-maximal inhibition (IC50).

Turning to `CC(C)c1ccccc1SC1=C(O)OC(CCCCC(=O)NCCc2ccccc2)(c2ccccc2)CC1=O` (stereo not given), it took 71 nM to reach half-maximal inhibition (IC50).

Compound `CC(C)c1ccccc1SC1=C(O)OC(CCC(=O)N2CCNCC2)(c2ccccc2)CC1=O` (stereo not given) showed an IC50 of 1110 nM.

Regarding `CC(C)c1ccccc1SC1=C(O)OC(CCCCC(=O)N2CCOCC2)(c2ccccc2)CC1=O` (stereo not given), it took 195 nM to reach half-maximal inhibition (IC50).

In turn, `CC(C)c1ccccc1SC1=C(O)OC(CCCCC(=O)N2CCN(C(=O)OC(C)(C)C)CC2)(c2ccccc2)CC1=O` (stereo not given) came in with an IC50 of 127 nM.

`CC(C)c1ccccc1SC1=C(O)OC(CCCC(N)=O)(c2ccccc2)CC1=O` (stereo not given) gave an IC50 of 101 nM.

Turning to `CC(C)c1ccccc1SC1=C(O)OC(CCCC(=O)NCCc2ccccc2)(c2ccccc2)CC1=O` (stereo not given), the IC50 came to 146 nM.

For `CC(C)c1ccccc1SC1=C(O)OC(CCCC(=O)N2CCSCC2)(c2ccccc2)CC1=O` (stereo not given), the IC50 came to 285 nM.

`CC(C)c1ccccc1SC1=C(O)OC(CCCCC(=O)N2CCSCC2)(c2ccccc2)CC1=O` (stereo not given) yielded an IC50 of 583 nM.

`CC(C)c1ccccc1SC1=C(O)OC(CCCC(=O)N2CCOCC2)(c2ccccc2)CC1=O` (stereo not given) gave an IC50 of 186 nM.

`CC(C)c1ccccc1SC1=C(O)OC(CCCCC(N)=O)(c2ccccc2)CC1=O` (stereo not given): the IC50 was 92 nM.

As for `CCCCCC1(c2ccccc2)CC(=O)C(Sc2ccccc2C(C)C)=C(O)O1` (stereo not given), the IC50 is 88 nM.

On to `CC(C)c1ccccc1SC1=C(O)OC(CCCCC(=O)NCc2ccccc2)(c2ccccc2)CC1=O` (stereo not given), for which the IC50 stood at 26 nM.

For the compound `CC(C)c1ccccc1SC1=C(O)OC(CCCC(=O)N2CCN(C(=O)OC(C)(C)C)CC2)(c2ccccc2)CC1=O` (stereo not given), the IC50 is 124 nM.

In turn, `CC(C)c1ccccc1SC1=C(O)OC(CCCCC(=O)O)(c2ccccc2)CC1=O` (stereo not given) came in with an IC50 of 1.8 nM.

`CC(C)c1ccccc1SC1=C(O)OC(CCCC(=O)N(C)CCc2ccccc2)(c2ccccc2)CC1=O` (stereo not given) returned an IC50 of 216 nM.

On to `CC(C)c1ccccc1SC1=C(O)OC(CCC(=O)N2CCN(C(=O)OC(C)(C)C)CC2)(c2ccccc2)CC1=O` (stereo not given), for which the IC50 is 1270 nM.

On to `CC(C)c1ccccc1SC1=C(O)OC(CCCC(=O)N(C)c2ccccc2)(c2ccccc2)CC1=O` (stereo not given), for which the IC50 is 624 nM.

On to `CC(C)c1ccccc1SC1=C(O)OC(CCC(=O)N2CCOCC2)(c2ccccc2)CC1=O` (stereo not given), for which the IC50 amounted to 2440 nM. Compared with the last compound, the IC50 is about 3.9-fold higher.

In the case of `CC(C)c1ccccc1SC1=C(O)OC(CCCC(=O)N2CCNCC2)(c2ccccc2)CC1=O` (stereo not given), half-maximal inhibition (IC50) was put at 564 nM.

Turning to `CC(C)c1ccccc1SC1=C(O)OC(CCCCC(=O)N2CCNCC2)(c2ccccc2)CC1=O` (stereo not given), the IC50 turned out to be 234 nM.

The compound `CC(C)c1ccccc1SC1=C(O)OC(CCCCC(=O)Nc2ccccc2)(c2ccccc2)CC1=O` (stereo not given) had an IC50 of 91 nM.

As to `CC(C)c1ccccc1SC1=C(O)OC(CCC(=O)N2CCSCC2)(c2ccccc2)CC1=O` (stereo not given), the IC50 was found to be 1100 nM.

For orientation: IC50 means the concentration that inhibits the measured activity by half.
